Where a chain is given by its changes, count along the chain named.
Legend:
Experiment in all cases: cell-based
M896T-AR = biological target: T1, M896T-AR (Homo sapiens, UniProt P10275, M896T)
T1 sequence (P10275 1-920 M896T): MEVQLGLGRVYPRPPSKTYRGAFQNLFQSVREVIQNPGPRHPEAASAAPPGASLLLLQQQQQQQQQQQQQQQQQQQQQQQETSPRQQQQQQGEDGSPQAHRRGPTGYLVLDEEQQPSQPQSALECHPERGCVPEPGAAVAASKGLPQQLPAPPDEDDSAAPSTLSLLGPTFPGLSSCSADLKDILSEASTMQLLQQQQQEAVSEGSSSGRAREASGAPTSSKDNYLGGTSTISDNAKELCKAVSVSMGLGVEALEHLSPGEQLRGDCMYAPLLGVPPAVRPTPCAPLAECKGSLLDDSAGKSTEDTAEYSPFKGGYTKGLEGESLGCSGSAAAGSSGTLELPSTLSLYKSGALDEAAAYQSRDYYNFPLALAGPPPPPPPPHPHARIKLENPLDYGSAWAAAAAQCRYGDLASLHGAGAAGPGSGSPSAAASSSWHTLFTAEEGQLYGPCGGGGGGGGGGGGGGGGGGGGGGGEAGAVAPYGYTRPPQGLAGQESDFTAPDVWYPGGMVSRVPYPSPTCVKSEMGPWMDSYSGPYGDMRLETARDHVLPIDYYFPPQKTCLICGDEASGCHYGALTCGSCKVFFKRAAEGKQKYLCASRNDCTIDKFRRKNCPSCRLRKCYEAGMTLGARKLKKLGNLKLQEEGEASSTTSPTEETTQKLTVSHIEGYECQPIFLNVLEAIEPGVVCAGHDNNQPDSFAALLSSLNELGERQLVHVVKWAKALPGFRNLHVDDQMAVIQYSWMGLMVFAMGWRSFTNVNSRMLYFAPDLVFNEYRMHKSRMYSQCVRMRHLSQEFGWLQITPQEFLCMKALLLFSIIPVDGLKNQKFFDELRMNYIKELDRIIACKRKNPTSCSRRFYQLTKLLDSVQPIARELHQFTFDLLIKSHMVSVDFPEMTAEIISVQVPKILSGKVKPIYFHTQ

D880E-AR = biological target: T2, D880E-AR (Homo sapiens, UniProt P10275, D880E)
T2 sequence (P10275 1-920 D880E): T1 sequence (P10275 1-920 M896T) with D880E, T896M

H875Q-AR = biological target: T3, H875Q-AR (Homo sapiens, UniProt P10275, H875Q)
T3 sequence (P10275 1-920 H875Q): T1 sequence (P10275 1-920 M896T) with H875Q, T896M

Measured: EC50

C[C@]12CCC(=O)C=C1CC[C@@H]1[C@@H]2[C@@H](O)C[C@@]2(C)[C@H]1CC[C@]2(O)C(=O)CO [hydrocortisone]
> 500 nM: all assays above

— publication PMC4729137, “Functional analysis of androgen receptor mutations that confer anti-androgen resistance identified in circulating cell-free DNA from prostate cancer patients” (Genome Biology, 2016)
